Reference: patent US20260007601A1, “IONIZABLE CATIONIC LIPID COMPOUND AND COMPOSITION FOR DELIVERING NUCLEIC ACID AND USE THEREOF” (BEIJING YOUCAREKECHUANG PHARMACEUTICAL TECHNOLOGY CO., LTD., priority 2023, published 2026)

Legend:
293T cells [1] = test: Fluorescence detection of Fluc-mRNA (cell transfection efficiency of LNP formulations); format: cell-based; settings: for Relative light unit (RLU): LNP containing 0.3 μg Fluc-mRNA, 24 hours; for Multiples of values that equivalent to YK-201: RLU of YK-201 / RLU of the named lipid; for Multiples of values that equivalent to YK-202: RLU of YK-202 / RLU of the named lipid; for Multiples of values that equivalent to YK-209: RLU of YK-209 / RLU of the named lipid; for Ratio relative to SM-102: RLU of the named lipid / RLU of SM-102, times that of SM-102
Experimental: (§1) Cell recovery and passaging: 293T cells were recovered and cultured in culture dishes to the required cell number.
(§2) Plating: The cells in the culture dish were digested, counted, plated in a 96-well plate at 10,000 cells per well, or in a 12-well plate at 150,000 cells per well, and cultured overnight until the cells adhered to the wall.
(§3) Cell recovery and passage: The method was the same as in Example 3.
(§4) Plating: The method was the same as Example 3.
The LNP formulation containing 0.3 μg Fluc-mRNA (prepared according to Example 4, the LNP formulation carrier components were cationic lipids, neutral lipids, structured lipids and polymer-conjugated lipids at a molar ratio of 49:10:39.5:1.5, and the cationic lipids were cationic lipids listed in Table 1) was added to the cell culture medium of a 96-well plate, and cultured for 24 hours. After that, the corresponding reagents were added according to the instructions of the Gaussia Luciferase Assay Kit, and the fluorescence expression intensity of each well was detected by the IVIS fluorescence detection system. This experiment verified the transfection efficiency of the LNP formulation in the cell, and the specific detection results are shown in Tables 6-9.

[2] = Encapsulation rate, drug loading concentration and total RNA concentration detection (RiboGreen); format: physicochemical; settings: LNP formulation of the named lipid
From the text: Encapsulation rate is a key quality attribute of liposomes. It refers to the percentage of drug content encapsulated in the lipid bilayer to the total amount of drug added, which can reflect the degree of drug encapsulation in liposomes. The Chinese Pharmacopoeia stipulates that the encapsulation rate should usually not be less than 80%.
The drug loading capacity is the ratio of the amount of drug in the liposome to the total amount of drug and carrier in the liposome. The drug loading capacity directly affects the clinical application dose of the drug, so the larger the drug loading capacity, the more it can meet clinical needs. The drug loading concentration is proportional to the drug loading capacity, and the relative proportion of the drug loading concentration can represent the relative proportion of the drug loading capacity. The relative proportion of the total RNA concentration can represent the relative proportion of the amount of mRNA carried by the LNP formulation.
1×TE buffer, 0.1% Triton X-100 buffer, and RiboGreen reagent (1:200) and mRNA standard stock solution were prepared.
An appropriate amount of sample was taken and added to an appropriate amount of 1×TE buffer, which was diluted to a solution containing about 2.8 μg of the test sample per 1 mL. Then the sample was added to a 96-well plate, where 50 μL of the diluted test sample or mRNA standard stock solution was added to each well, and then added with 1×TE buffer and 0.1% Triton X-100 buffer. The samples were incubated at 37° C. for 10 minutes, and 100 μL of RiboGreen reagent (1:200) was added to each well of the 96-well plate. The plate was centrifuged, and read using an ELISA reader, and the data was processed.

293T cells [3] = test: Cell survival rate assay (CCK-8); format: cell-based; settings: LNP containing 1.5 μg Fluc-mRNA, 24 hours, CCK-8
Experimental: as §1, §2, §3, §4
The LNP formulations containing 1.5 μg Fluc-mRNA (prepared according to Example 4, the LNP formulation carrier components are cationic lipids, neutral lipids, structured lipids and polymer-conjugated lipids at a molar ratio of 49:10:39.5:1.5, wherein the cationic lipids are the cationic lipids listed in Table 1) and the Lipofectamine 3000 formulation were added to the cell culture medium of the 96-well plate, and the culture was continued for 24 hours. Then, 10 μL of CCK-8 solution was added to each well, and the culture plate was incubated in the incubator for 1 hour, and the absorbance at 450 nm was measured by a microplate reader.

[4] = Particle size and polydispersity index (PDI) of nanolipid particles, dynamic light scattering; format: physicochemical; settings: LNP formulation prepared from the named cationic lipid, 25° C
Experimental: The particle size and polydispersity index (PDI) were determined by dynamic light scattering method using a Malvern laser particle size analyzer. 10 μL of liposome solution was diluted to 1 mL with RNase-free deionized water and added to a sample pool. Each sample was measured three times. The measurement conditions were: 90° scattering angle, 25° C.

Compound | Drug loading concentration [2] | Encapsulation rate [2] | Total RNA concentration [2] | PDI [4] | Particle size [4] | Relative light unit (RLU) (293T cells [1]) | Multiples of values that equivalent to YK-201 (293T cells [1]) | Multiples of values that equivalent to YK-202 (293T cells [1]) | Multiples of values that equivalent to YK-209 (293T cells [1]) | Ratio relative to SM-102 (293T cells [1]) | Cell survival rate (293T cells [3])
CCCCCCCCCCOC(=O)CCCN(CCCCCC(=O)OCCC(CCCCCC)CCCCCC)C(=O)SCCCN(C)C [YK-220] | 25.27 µg/mL | 57.5% | 43.92 µg/mL | 26.6% | 221 nm | 216398 RLU | 131.62 | 138.44 | 97.32 | 0.13 | 58.99%
CCCCCCC(CCCCCC)CCOC(=O)CCCCCN(CCCCCC(=O)OCCC(CCCCCC)CCCCCC)CCN(C)CCO [YK-211, bis(3-hexylnonyl)-6,6-((2-(2-hydroxyethyl(methyl)amino)ethyl)azadialkyl)dihexanoate] | 42.91 µg/mL | 97.7% | 43.92 µg/mL | 20.7% | 222 nm | 1370100 RLU | 20.79 | 21.87 | 15.37 | 0.82 | 52.30%
CCCCCCC(CCCCCC)CCOC(=O)CCCCCN(CCCCCC(=O)OCCC(CCCCCC)CCCCCC)CCN(CCO)CCO [YK-214, bis(3-hexylnonyl)-6,6-((2-(bis(2-hydroxyethyl)amino)ethyl)azadialkyl)dihexanoate] | 38.16 µg/mL | 96.7% | 39.46 µg/mL | 31.5% | 203 nm | 4582178 RLU | 6.22 | 6.54 | 4.60 | 2.75 | 25.58%
CCCCCCCCCCOC(=O)CCCN(CCCCCC(=O)OCC(CCCCCCCC)CCCCCCCC)CCN(C)CCOC [YK-216] | 27.36 µg/mL | 61.3% | 44.64 µg/mL | 13.7% | 219 nm | 2280300 RLU | 12.49 | 13.14 | 9.24 | 1.37 | 45.80%
CCCCCCCCCCOC(=O)CCCN(CCCCCC(=O)OCC(CCCCCCCC)CCCCCCCC)C(=O)SCCCN(C)C [YK-219] | 30.31 µg/mL | 64.2% | 47.23 µg/mL | 22.4% | 217 nm | 1505963 RLU | 18.91 | 19.89 | 13.98 | 0.90 | 58.61%
CCCCCCCCCCOC(=O)CCCN(CCCCCC(=O)OCC(CCCCCCCC)CCCCCCCC)CCN(CC)CCO [YK-208] | 37.80 µg/mL | 88.2% | 42.84 µg/mL | 24.4% | 167 nm | 3858487 RLU | 7.38 | 7.76 | 5.46 | 2.32 | 46.68%
CCCCCCCCCCOC(=O)CCCN(CCCCCC(=O)OCC(CCCCCCCC)CCCCCCCC)CCOC(=O)SCCCN(C)C [YK-218, 2-octyldecyl-11-(4-(decyloxy)-4-oxobutyl)-2-methyl-7-oxo-8-oxo-6-thio-2,11-diazaheptane-17-carboxylate] | 36.50 µg/mL | 78.2% | 46.66 µg/mL | 17.2% | 222 nm | 607080 RLU | 46.92 | 49.35 | 34.69 | 0.36 | 72.84%

Now from value to molecule, other results behind:

Drug loading concentration [2] | Encapsulation rate [2] | Total RNA concentration [2] | PDI [4] | Particle size [4] | Compound | Relative light unit (RLU) (293T cells [1]) | Multiples of values that equivalent to YK-201 (293T cells [1]) | Multiples of values that equivalent to YK-202 (293T cells [1]) | Multiples of values that equivalent to YK-209 (293T cells [1]) | Ratio relative to SM-102 (293T cells [1]) | Cell survival rate (293T cells [3])
38.81 µg/mL | 98.7% | 39.31 µg/mL | 30.3% | 185 nm | CCCCCCCCC(CCCCCCCC)OC(=O)CCCCCN(CCCCCC(=O)OC(CCCCCCCC)CCCCCCCC)CCN(C)CCNC [YK-224] | 88020 RLU | 323.59 | 340.35 | 239.25 | 0.05 | 23.47%
34.70 µg/mL | 82.0% | 42.34 µg/mL | 17.6% | 207 nm | CCCCCCCCC(CCCCCCCC)OC(=O)CCCCCN(CCCCCC(=O)OC(CCCCCCCC)CCCCCCCC)CCN(CCO)CCO [YK-213, bis(heptadecan-9-yl)-6,6-((2-(bis(2-hydroxyethyl)amino)ethyl)azadialkyl)dihexanoate] | 1364505 RLU | 20.87 | 21.95 | 15.43 | 0.82 | 41.44%
36.50 µg/mL | 85.6% | 42.62 µg/mL | 22.9% | 224 nm | CCCCCCCCC(CCCCCCCC)OC(=O)CCCCCN(CCCCCC(=O)OC(CCCCCCCC)CCCCCCCC)CCN(C)CCO [YK-210, bis(heptadecan-9-yl)-6,6′-((2-(2-hydroxyethyl(methyl)amino)ethyl)azadialkyl)dihexanoate] | 4628355 RLU | 6.15 | 6.47 | 4.55 | 2.78 | 38.38%
25.78 µg/mL | 94.0% | 27.43 µg/mL | 30.4% | 218 nm | CCCCCCCCCCCOC(=O)CCCCCN(CCCCCCCC(=O)OC(CCCCCCCC)CCCCCCCC)CCN(C)CCNC [YK-222] | 606360 RLU | 46.97 | 49.41 | 34.73 | 0.36 | 33.75%
